Molecular target: recombinant human NK3 receptor (Homo sapiens (Human), UniProt P29371)
Test: biochemical
Type: binding
Conditions: [3H]SR142801, membranes of HEK293 cells transiently expressing recombinant human NK3 receptor; read-out: Data Ki (hNK-3 receptor affinity)

recombinant human NK3 receptor, sequence (P29371 whole entry): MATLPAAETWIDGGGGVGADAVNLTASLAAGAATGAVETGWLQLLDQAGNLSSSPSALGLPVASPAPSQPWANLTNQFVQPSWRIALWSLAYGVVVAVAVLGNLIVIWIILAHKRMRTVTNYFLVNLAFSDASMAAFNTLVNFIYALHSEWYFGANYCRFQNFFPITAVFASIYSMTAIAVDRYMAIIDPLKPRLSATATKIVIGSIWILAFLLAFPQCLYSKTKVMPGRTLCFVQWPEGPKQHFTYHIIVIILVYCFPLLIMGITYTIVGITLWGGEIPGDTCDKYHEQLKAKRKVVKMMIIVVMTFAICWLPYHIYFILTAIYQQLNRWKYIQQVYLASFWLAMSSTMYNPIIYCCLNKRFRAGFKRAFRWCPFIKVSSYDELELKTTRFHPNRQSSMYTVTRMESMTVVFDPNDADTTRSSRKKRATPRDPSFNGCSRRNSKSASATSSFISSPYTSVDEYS

SMILES	Ki
N#Cc1ccc(N2CCC(C(=O)N3C[C@@H](N(C(=O)Oc4ccc(F)cc4)C4CC4)[C@H](c4ccc(Cl)cc4)C3)CC2)nc1 [Example 29, [(3S,4R)-4-(4-Chloro-phenyl)-1-(5′-cyano-3,4,5,6-tetrahydro-2H-[1,2′]bipyridinyl-4-carbonyl)-pyrrolidin-3-yl]-cyclopropyl-carbamic acid 4-fluoro-phenyl ester]	12 nM
CCN(C(=O)Oc1ccccc1F)[C@@H]1CN(C(=O)C2CCN(C(=O)C3(C)COC3)CC2)C[C@H]1c1ccc(Cl)cc1 [Example 84, {(3S,4R)-4-(4-Chloro-phenyl)-1-[1-(3-methyl-oxetane-3-carbonyl)-piperidine-4-carbonyl]-pyrrolidin-3-yl}-ethyl-carbamic acid 2-fluoro-phenyl ester]	29.8 nM
CCN(C(=O)Oc1ccc(F)cc1)[C@@H]1CN(C(=O)C2CCN(C(=O)C3(C(F)(F)F)CCC3)CC2)C[C@H]1c1ccc(Cl)c(F)c1 [Example 68, {(3S,4R)-4-(4-Chloro-3-fluoro-phenyl)-1-[1-(1-trifluoromethyl-cyclobutanecarbonyl)-piperidine-4-carbonyl]-pyrrolidin-3-yl}-ethyl-carbamic acid 4-fluoro-phenyl ester]	2 nM
CCN(C(=O)Oc1ccc(F)cc1)[C@@H]1CN(C(=O)C2CCN(c3cnc(C#N)cn3)CC2)C[C@H]1c1ccc(F)c(F)c1 [Example 62, [(3S,4R)-1-[1-(5-Cyano-pyrazin-2-yl)-piperidine-4-carbonyl]-4-(3,4-difluoro-phenyl)-pyrrolidin-3-yl]-ethyl-carbamic acid 4-fluoro-phenyl ester]	6 nM
CCN(C(=O)Oc1ccc(F)cc1)[C@@H]1CN(C(=O)C2CCN(C(=O)C3CCC3)CC2)C[C@H]1c1ccc(Cl)c(F)c1 [Example 67, [(3S,4R)-4-(4-Chloro-3-fluoro-phenyl)-1-(1-cyclobutanecarbonyl-piperidine-4-carbonyl)-pyrrolidin-3-yl]-ethyl-carbamic acid 4-fluoro-phenyl ester]	2 nM
CCN(C(=O)Oc1ccc(F)cc1)[C@@H]1CN(C(=O)C2CCN(C(=O)c3ccc(F)cn3)CC2)C[C@H]1c1ccc(Cl)cc1 [Example 102, {(3S,4R)-4-(4-Chloro-phenyl)-1-[1-(5-fluoro-pyridine-2-carbonyl)-piperidine-4-carbonyl]-pyrrolidin-3-yl}-ethyl-carbamic acid 4-fluoro-phenyl ester]	8.2 nM
CCN(C(=O)Oc1ccc(F)cc1)[C@H]1CN(C(=O)C2CCN(c3ccc(C(C)=O)cn3)CC2)C[C@@H]1c1ccc(Cl)cc1 [Example 8, [(3R,4S)-1-(5′-Acetyl-3,4,5,6-tetrahydro-2H-[1,2′]bipyridinyl-4-carbonyl)-4-(4-chloro-phenyl)-pyrrolidin-3-yl]-ethyl-carbamic acid 4-fluoro-phenyl ester]	55 nM
CC(C)N(C(=O)Oc1ccc(F)cc1)[C@H]1CN(C(=O)C2CCN(c3ccc(C#N)cn3)CC2)C[C@@H]1c1ccc(Cl)cc1 [Example 28, [(3R,4S)-4-(4-Chloro-phenyl)-1-(5′-cyano-3,4,5,6-tetrahydro-2H-[1,2′]bipyridinyl-4-carbonyl)-pyrrolidin-3-yl]-isopropyl-carbamic acid 4-fluoro-phenyl ester]	50 nM
CCN(C(=O)Oc1ccc(F)cc1)[C@@H]1CN(C(=O)C2CCN(C(=O)C3CC3(C)C)CC2)C[C@H]1c1ccc(Cl)cc1 (stereo partly drawn) [Example 100, {(3S,4R)-4-(4-Chloro-phenyl)-1-[1-(2,2-dimethyl-cyclopropanecarbonyl)-piperidine-4-carbonyl]-pyrrolidin-3-yl}-ethyl-carbamic acid 4-fluoro-phenyl ester]	3.6 nM
CCN(C(=O)Oc1ccc(F)cc1)[C@@H]1CN(C(=O)C2CCN(C(=O)c3ccc(C#N)cc3)CC2)C[C@H]1c1ccc(Cl)c(F)c1 [Example 76, {(3S,4R)-4-(4-Chloro-3-fluoro-phenyl)-1-[1-(4-cyano-benzoyl)-piperidine-4-carbonyl]-pyrrolidin-3-yl}-ethyl-carbamic acid 4-fluoro-phenyl ester]	17 nM

Same assay, conditions: read-out: Data Ki (hNK-3 receptor affinity)

SMILES	Ki
CCN(C(=O)Oc1ccc(F)cc1)[C@@H]1CN(C(=O)C2CCN(c3cc(C#N)ccn3)CC2)C[C@H]1c1ccc(Cl)cc1 [Example 15, [(3S,4R)-4-(4-Chloro-phenyl)-1-(4′-cyano-3,4,5,6-tetrahydro-2H-[1,2′]bipyridinyl-4-carbonyl)-pyrrolidin-3-yl]-ethyl-carbamic acid 4-fluoro-phenyl ester]	8 nM
CCN(C(=O)Oc1ccc(F)cc1)[C@@H]1CN(C(=O)C2CCN(C(=O)C3CCC(=O)N(C(C)C)C3)CC2)C[C@H]1c1ccc(Cl)cc1 (stereo partly drawn) [Example 104, {(3S,4R)-4-(4-Chloro-phenyl)-1-[1-(1-isopropyl-6-oxo-piperidine-3-carbonyl)-piperidine-4-carbonyl]-pyrrolidin-3-yl}-ethyl-carbamic acid 4-fluoro-phenyl ester]	17.6 nM

Tested on: not given
Test: not given
Conditions: phase II trial; cited from earlier work

SMILES	activity on negative symptoms of schizophrenia	activity on positive symptoms of schizophrenia
CC(=O)N(C)C1(c2ccccc2)CCN(CCC[C@]2(c3ccc(Cl)c(Cl)c3)CCCN(C(=O)c3ccccc3)C2)CC1 [SR 142,801, Osanetant]	inactive in the treatment of negative symptoms	active on positive symptoms of schizophrenia
